US20210267986A1, “THERAPEUTIC REGIMENS FOR TREATMENT OF CANCER USING ERIBULIN AND SELECTIVE CDK4/6 INHIBITOR COMBINATIONS” (G1 Therapeutics, Inc., priority 2018, published 2021)

What was measured:
[1] = tested on: lineage negative (Lin−) bone marrow cells (HSPC); experiment: EdU incorporation by flow cytometry in MCF7 tumor-bearing mice, bone marrow; assay type: in vivo; conditions: single dose IP 100 mg/kg
Description: (§1) FIG. 2A is a graph depicting the percentage of EdU positive MCF7 tumor cells vs. Edu positive Lin^− bone marrow cells from MCF7 tumor bearing mice treated with Compound 1 at 4, 12, 24, and 48 hours post treatment. MCF7 tumor cells are on the left at each time point while Lin- bone marrow cells are on the right at each time point. FIG. 2B is a graph depicting the percentage of EdU positive MCF7 tumor cells vs. Edu positive Lin^− bone marrow cells from MCF7 tumor bearing mice treated with Compound 1 at 4, 12, 24, and 48 hours post treatment normalized to baseline. MCF7 tumor cells are on the left at each time point while Lin- bone marrow cells are on the right at each time point.
(§2) MCF7 tumor-bearing mice were treated with a single dose of Compound 1 (IP, 100 mg/kg) or vehicle control. After 4, 12, 24, and 48 hours of treatment, animals were pulsed with 5-ethynyl-2′-deoxyuridine (EdU; IP, 200 […]g). Tumors and femurs from each animal were harvested after 4 hours of EdU dosing and processed to single cell suspensions for detection of EdU+ cells by flow cytometry. HSPC in bone marrow is defined as cell populations negative for lineage markers (Mac-1, Gr-1, Ter119, B220, CD4, CD8). […] Students T tests were completed to compare % EdU+ cells (tumor vs bone marrow) at baseline in panel A ****p≤0.0001.

[2] = tested on: MCF7 tumor cells; experiment: EdU incorporation by flow cytometry in MCF7 tumor-bearing mice, tumor cells; assay type: in vivo; conditions: single dose IP 100 mg/kg
Description: as §1, §2

[3] = tested on: MDA-MB-231 breast cancer xenograft; experiment: MDA-MB-231 xenograft, weekly Compound 1 30 minutes prior to eribulin, tumor volume; assay type: in vivo, mice
Description: The graphs represent mean tumor volume over time. The y-axis is tumor volume measured in cubic millimeters. The x-axis is time measured in days. The dotted line represents dates of weekly treatment. The error bars represent standard error of the mean.
A highly CDK4/6 dependent breast cancer xenograft model (MDA-MB-231) was employed to determine whether transient CDK4/6 inhibition with Compound 1 would antagonize the intended therapeutic effects. First, MD-MB-231 tumor-bearing mice were treated daily with Compound 1 (IP, 100 mg/kg, n=6-8) for 28 days to confirm the CDK4/6 dependency of the xenograft model. Next, MDA-MB-231 tumor-bearing mice were treated with eribulin (IV, 0.5 mg/kg) with or without Compound 1 (IP, 100 mg/kg) weekly for three weeks, with Compound 1 being given 30 minutes prior to chemotherapy treatment. In all experiments, tumors were measured, and tumor volume was calculated twice weekly. […] Therefore, Compound 1 can be administered to preserve hematopoietic stem and progenitor cell (HSPC) and immune system function during eribulin therapy without antagonizing the intended anti-tumor efficacy of eribulin.

[4] = tested on: MDA-MB-231 breast cancer xenograft; experiment: MDA-MB-231 xenograft, daily Compound 1 with weekly eribulin, tumor volume; assay type: in vivo, mice
Description: The y-axis is tumor volume measured in cubic millimeters. The x-axis is time measured in days. The dotted line represents dates of weekly treatment. The error bars represent standard error of the mean.
A highly CDK4/6 dependent breast cancer xenograft model (MDA-MB-231) was employed to determine whether continuous CDK4/6 inhibition with Compound 1 would antagonize the intended therapeutic effects of eribulin. First, MDA-MB-231 tumor-bearing mice were treated daily with Compound 1 (IP, 100 mg/kg, n=10) for 28 days to confirm the CDK4/6 dependency of the xenograft model. Next, MDA-MB-231 tumor-bearing mice were treated with eribulin (IV, 0.5 mg/kg, n=10) weekly for three weeks. Next, MDA-MB-231 tumor-bearing mice were treated daily with Compound 1 (IP, 100 mg/kg, n=10) and with eribulin (IV, 0.5 mg/kg, n=10) weekly for three weeks, with Compound 1 being given 30 minutes prior to chemotherapy treatment on days 1, 8, and 15. In all experiments, tumors were measured, and tumor volume was calculated twice weekly. The dosing schedule is shown below in Table 1. […] Therefore, Compound 1 can be administered to preserve hematopoietic stem and progenitor cell (HSPC) and immune system function during eribulin therapy without antagonizing the intended anti-tumor efficacy of eribulin.

[5] = patients receiving eribulin; cited from earlier work
[6] = Lin− bone marrow cells, post treatment
[7] = MCF7 tumor cells, post treatment

| Compound | G1-arrest of hematopoietic stem cells [1] | time of maximal cell cycle inhibition (% EdU+ normalized to baseline) [1, 6] | time of reentering the cell cycle [1, 6] | time of maximal cell cycle inhibition (% EdU+ normalized to baseline) [2, 7] | time of reentering the cell cycle [2, 7] | cell cycle status of tumor cells after Compound 1 ([2]; S/G2/M) | effect of Compound 1 on eribulin therapy (tumor volume) ([3]; Compound 1 IP 100 mg/kg 30 minutes prior to eribulin IV 0.5 mg/kg, weekly for three weeks, compared to eribulin alone) | anti-tumor effect of Compound 1 alone ([3]; IP 100 mg/kg, dosed on a similar schedule as in combination with eribulin (weekly for three weeks)) | effect of continuous Compound 1 on eribulin therapy (tumor volume) ([4]; Compound 1 IP 100 mg/kg daily for 28 days plus eribulin IV 0.5 mg/kg weekly for three weeks, compared to eribulin alone) | anti-tumor effect of Compound 1 alone ([4]; IP 100 mg/kg daily for 28 days) | incidence of >grade 3 neutropenia [5] |
| --- | --- | --- | --- | --- | --- | --- | --- | --- | --- | --- | --- |
| CN1CCN(c2ccc(Nc3ncc4cc5n(c4n3)C3(CCCCC3)CNC5=O)nc2)CC1 [Compound 1, 2′-((5-(4-methylpiperazin-1-yl)pyridin-2-yl)amino)-7′,8′-dihydro-6′H-spiro(cyclohexane-1,9′-pyrazino(1′,2′: 1,5)pyrrolo(2,3-d)pyrimidin)-6′-one] | nearly universal G1-arrest | 24 h | ≤ 48 h | 24 h | ≤ 48 h | a significant fraction of tumor cells are past the G1 checkpoint | no antagonist effect | did not demonstrate any significant anti-tumor effect | synergistic effect | did demonstrate a significant anti-tumor effect | – |
| C=C1C[C@@H]2CC[C@@]34C[C@H]5O[C@H]6[C@@H](O3)[C@H]3O[C@H](CC[C@@H]3O[C@H]6[C@H]5O4)CC(=O)C[C@@H]3[C@@H](OC)[C@@H](C[C@H](O)CN)O[C@H]3C[C@H]3O[C@@H](CC[C@@H]1O2)C[C@@H](C)C3=C [eribulin] | – | – | – | – | – | – | – | – | – | – | around 57% |
